Entries after “also recorded” stand apart in the source; their conditions may differ. Structures can show the parent of a compound that is named as a salt.
Experiments:
[1] = tested on: primary hepatocytes from either control or NRK1 knockout (NRK1 KO) mice; test: NAD+ levels in primary hepatocytes from control or NRK1 knockout mice; assay type: cell-based; details: after 1 hour of treatment
From the text: (§1) If NRH led to NAD+ synthesis via the formation of NMNH, this hypothetical path would require the phosphorylation of NRH into NMNH.

[2] = Circulating NAM, NRH and NR after IP injection in mice; assay type: in vivo
Experimental: (§2) The UHPLC consisted of a binary pump, a cooled autosampler, and a column oven (DIONEX Ultimate 3000 UHPLC+ Focused, Thermo Scientific), connected to a triple quadrupole spectrometer (TSQ Vantage, Thermo Scientific) equipped with a heated electrospray ionisation (H-ESI) source. Of each sample, 2 µL were injected into the analytical column (2.1 mm x 150 mm, 5 µm pore size, 200 Å HILICON iHILIC®-Fusion(P)), guarded by a pre-column (2.1 mm x 20 mm, 200 Å HILICON iHlLIC®-Fusion(P) Guard Kit) operating at 35° C. The mobile phase (10 mM ammonium acetate at pH 9, A, and acetonitrile, B) was pumped at 0.25 mL/min flow rate over a linear gradient of decreasing organic solvent (0.5-16 min, 90-25% B), followed by re-equilibration for a total run time of 30 min. The MS operated in positive mode at 3500 V with multiple reaction monitoring (MRM). The software Xcalibur v4.1.31.9 (Thermo Scientific) was used for instrument control, data acquisition and processing.

[3] = Stability of NRH or NR spiked in isolated mouse plasma; assay type: in vitro ADME
Experimental: as §2
(§3) NR degradation to NAM has been proposed as a limitation for its pharmacological efficacy.

[4] = tested on: mice; test: Tissue NAD+ levels after IP injection of NR or NRH in mice; assay type: in vivo; details: IP 500 mg/kg, after 1 h
[5] = tested on: AML12 cells; test: Pathway of NRH-induced NAD+ synthesis: intracellular metabolites and pathway inhibitors (NBTI, FK866, 5-IT, ABT-702, gallotannin); assay type: cell-based; design: action on NAD+ under adenosine kinase inhibition by 5-IT: dose or concentration left out as unconfirmed
Experimental: FIG. 4. NRH leads to NAD+ biosynthesis through an adenosine kinase dependent path. […] Then, 1 hour later, acidic extracts were obtained to measure NAD^+ levels. All values in the figure are expressed as mean +/- SEM of 3 independent experiments. * indicates statistical difference at p< 0.05 vs. the respective vehicle treated group.
A path in which NRH would be converted to NMNH, then to NADH and this would be finally oxidized to NAD+.
In order to understand the exact path by which NRH synthesizes NAD+, we initially evaluated whether NRH, could be transported into the cell by equilibrative nucleoside transporters (ENTs).
as §1
Considering the molecular structure of NRH, we reasoned that an alternative nucleoside kinase could be responsible for the phosphorylation of NRH.
As a follow-up step, NMNAT enzymes could catalyze the transition from NMNH to NADH.

[6] = From the text: as §3
[7] = tested on: AML12 hepatocytes; test: Intracellular NAD+ levels in AML12 hepatocytes treated with NRH or NR (dose-response, time course); assay type: cell-based
Experimental: FIG. 3. NHR acts rapidly after 5 minutes from treatment.

[8] = tested on: INS1-cells; test: NAD+ levels after NRH treatment in INS1-cells; assay type: cell-based
[9] = tested on: 3T3 fibroblasts; test: NAD+ levels after NRH treatment in 3T3 fibroblasts; assay type: cell-based
[10] = tested on: C2C12 myotubes; test: NAD+ levels after NRH treatment in C2C12 myotubes; assay type: cell-based
[11] = tested on: Primary rat cortical neurons; test: Amyloid β oligomer induced loss of neurite network in primary cortical neurons (MAP-2 staining); assay type: cell-based; details: NRH 0.01 mM pre-incubated 24 hr or 6 hr, Aβ1-42 15 µmol/L for 24 h
Experimental: FIG. 7. […] Primary rat cortical neurons were cultured as described in Callizot et al., 2013. […] The Aβ1-42 preparation was done as described in Callizot et al., 2013. The Aβ1-42 preparation was added to a final concentration of 15 µmol/L (2.25 µmol/L oligomers, AβO) diluted in control medium in presence of compounds and let for 24 h. The cortical neurons were then fixed by a cold solution of ethanol (95%) and acetic acid (5%), permeabilized with saponin and incubated with an anti microtubule-associated-protein 2 (MAP-2), to stain cell bodies and neurites, allowing the study of the length of the neurite network. For each condition, 30 pictures (representative of the all well area) per well were taken using ImageXpress (Molecular Devices) with 20x magnification. Neurite length was then evaluated as % of control values. All values are expressed as mean +/-SEM from 5-6 independent wells. * indicates statistically significant difference vs. the amyloid b1-42 treated groups.
Primary rat cortical neurons were cultured as described in Callizot et al., 2013. […] The Aβ1-42 preparation was done as described in Callizot et al., 2013. The Aβ1-42 preparation was added to a final concentration of 15 µmol/L (2.25 µmol/L oligomers, AβO) diluted in control medium in presence of compounds and let for 24 h. […] Neurite length was then evaluated as % of control values.

Q: Which “NAD+ levels in NRK1 KO derived primary hepatocytes” value [1] does the source give for `NC(=O)c1ccc[n+]([C@@H]2O[C@H](CO)[C@@H](O)[C@H]2O)c1` [NR, 1-b-D-ribofuranosyl-3-pyridinecarboxamide salt, reference compound] here?
A: The value was “failed to increase NAD+ levels”.

Q: What about the “NAM levels in circulation” value ([2]; mice, IP 500 mg/kg) of the same compound?
A: The value was “highly increased”.

Q: And the “generation of NAM in isolated mouse plasma” value ([3]; 2 h of incubation)?
A: The value was “increase in NAM”.

Q: And the “levels of the compound in isolated mouse plasma” value ([3]; 2 h of incubation)?
A: Its value is “NR levels decayed in plasma”.

Q: And the “NAD+ levels in liver, muscle and kidney” value [4]?
A: The value was “increased NAD+ levels in liver, muscle and kidney”.

Q: Which “action on NAD+ under adenosine kinase inhibition by 5-IT” value ([5]; 5-IT for 1 hour prior to NRH, NAD+ measured 1 hour later) does the source give for “dihydro-1-beta-D-ribofuranosyl-3-pyridinecarboxamide [NRH]” here?
A: Its value is “fully ablated the action of NRH”.

Q: What about the “formation of NR and NMN after NRH treatment with 5-IT” value ([5]; 5-IT treatment) of the same compound?
A: Its value is “prevented the formation of NR and NMN”.

Q: What about the “intracellular detection of NRH and NMNH” value ([5]; 5 minutes after treatment) of the same compound?
A: Its value is “could be detected intracellularly”.

Q: And the “generation of NMNH, NADH and NAD+ upon inhibition of AK (metabolomic analyses)” value ([5]; after NRH treatment)?
A: The value was “fully blunted”.

Q: What about the “intracellular NR and NMN after treatment” value ([5]; compared with NR treatment) of the same compound?
A: Its value is “increase in intracellular NR and NMN, greater than that triggered by NR itself”.

Q: And the “NAD+ synthesis with NMNAT inhibitor gallotannin” value ([5]; gallotannin)?
A: Its value is “largely compromised NAD+ synthesis”.

Q: What about the “NRH action with gallotannin at maximal doses” value ([5]; gallotannin, NRH 0.5 mM) of the same compound?
A: Its value is “part of the NRH action remained”.

Q: What about the “NRH action with gallotannin at submaximal doses” value ([5]; gallotannin, submaximal NRH doses) of the same compound?
A: The value was “totally blocked”.

Q: And the “capacity as extracellular NAD+ precursor under ENT blockade” value ([5]; in the presence of S-(4-nitrobenzyl)-6-thioinosine (NBTI))?
A: The value was “largely lost its capacity as an extracellular NAD+ precursor”.

Q: And the “action on NAD+ under adenosine kinase inhibition by ABT-702” value ([5]; second, structurally different AK inhibitor ABT-702)?
A: The value was “role of AK in NRH-mediated NAD+ synthesis was confirmed”.

Q: What about the “dependence of action on NAMPT” value ([5]; with FK866, a NAMPT inhibitor) of the same compound?
A: Its value is “NAMPT-independent”.

Q: And the “degradation to NAM in FBS supplemented media” value [6]?
A: Its value is “did not degrade to NAM”.

Q: What about the “ability to increase intracellular NAD+ compared with NR” value [7] of the same compound?
A: The value was “better than NR; also recorded: superior to that of NR”.

Q: What about the “concentration range of maximal effects on NAD+ synthesis” value [7] of the same compound?
A: Its value is “around the millimolar range”.

Q: And the “time to significant increases in NAD+ levels after treatment” value [7]?
A: The value was at most 5 min.

Q: What about the “increase of intracellular NAD+ levels at maximal effect” value ([7]; around the millimolar range) of the same compound?
A: The value was “more than 10 fold”.

Q: And the “concentration at which NAD+ levels are significantly increased” value ([7]; dose-response)?
A: The value was 10 µM.

Q: And the “NAD+ levels” value [8]?
A: Its value is “highly elevated NAD+ levels”.

Q: What about the “NAD+ levels” value [9] of the same compound?
A: The value was “highly elevated NAD+ levels”.

Q: What about the “NAD+ levels” value [10] of the same compound?
A: Its value is “highly elevated NAD+ levels”.

Q: What about the NR in circulation ([2]; mouse, in vivo) of the same compound?
A: The NR in circulation was “much higher levels than those detected after NR injection itself”.

Q: And the “NAM levels in circulation” value ([2]; mouse, in vivo, ip, 500 mg/kg)?
A: Its value is “only a very mild increase”.

Q: What about the “neurite network / neurite length after Amyloid β1-42 exposure” value [11] of the same compound?
A: Its value is “protects against Amyloid β oligomer induced loss of neurite network; also recorded: protects against Amyloid β-oligomer induced toxicity in terms of neurite length”.

Q: And the “NR production on incubation in isolated plasma” value [3]?
A: The value was “did not lead to NR production”.

Q: What about the “NAD+ levels in liver, muscle and kidney” value [4] of the same compound?
A: The value was “increased NAD+ levels in liver, muscle and kidney”.
